Read-outs that look alike come from different tables or passages of the source.
Assays:
FAP = settings: different assay conditions; cited from earlier work
[1] = molecular target: T1, DPP4 (dipeptidyl peptidase IV) purified from human seminal plasma (Homo sapiens, UniProt P27487); test: In vitro inhibition assay (IC50), DPP4, substrate Ala-Pro-pNA; type: biochemical; settings: for IC50: 25 µM Ala-Pro-pNA, pH 7.4, 37 °C; for SI(DPP4/FAP): selectivity index = IC50(DPP4)/IC50(FAP)
T1 construct: DPP4 (dipeptidyl peptidase IV) was purified from human seminal plasma; from tissue; host or cells: human seminal plasma
Description: (§1) rhFAP (recombinant human fibroblast activation protein), DPP8 (dipeptidyl peptidase VIII) and DPP9 (dipeptidyl peptidase IX) were expressed and purified as described previously. DPP4 (dipeptidyl peptidase IV) was purified from human seminal plasma as described previously. Human recombinant PREP (prolylendopeptidase) was expressed and purified as described before.
(§2) All enzymatic activities were determined kinetically for 15 min at 37 °C by measuring initial velocities of AMC release (λex = 380 nm and λem = 465 nm) or pNA release (405 nm) from the substrates mentioned above with an Infinite 200 plate reader from Tecan Group Ltd. (Männedorf, Switzerland). The Magellan software was used to process the data, and data fitting was performed using a non-linear fitting model in Grafit 7.4. All IC50 measurements were carried out in triplicate with at least eight different inhibitor concentrations tested.

[2] = molecular target: T2, DPP9 (dipeptidyl peptidase IX) (Homo sapiens, UniProt Q86TI2); test: In vitro inhibition assay (IC50), DPP9, substrate Ala-Pro-pNA; type: biochemical; settings: for IC50: 150 µM Ala-Pro-pNA, pH 7.4, 37 °C; for SI(DPP9/FAP): selectivity index = IC50(DPP9)/IC50(FAP)
T2 construct: made in house
Description: as §1, §2

[3] = molecular target: T3, rhFAP (recombinant human fibroblast activation protein) (Homo sapiens, UniProt Q12884); test: In vitro inhibition assay (IC50), FAP, substrate Z-Gly-Pro-AMC; type: biochemical; settings: for IC50 values for FAP (in words): summary statement on Table 3
T3 construct: made in house
T3 sequence (Q12884 1-760): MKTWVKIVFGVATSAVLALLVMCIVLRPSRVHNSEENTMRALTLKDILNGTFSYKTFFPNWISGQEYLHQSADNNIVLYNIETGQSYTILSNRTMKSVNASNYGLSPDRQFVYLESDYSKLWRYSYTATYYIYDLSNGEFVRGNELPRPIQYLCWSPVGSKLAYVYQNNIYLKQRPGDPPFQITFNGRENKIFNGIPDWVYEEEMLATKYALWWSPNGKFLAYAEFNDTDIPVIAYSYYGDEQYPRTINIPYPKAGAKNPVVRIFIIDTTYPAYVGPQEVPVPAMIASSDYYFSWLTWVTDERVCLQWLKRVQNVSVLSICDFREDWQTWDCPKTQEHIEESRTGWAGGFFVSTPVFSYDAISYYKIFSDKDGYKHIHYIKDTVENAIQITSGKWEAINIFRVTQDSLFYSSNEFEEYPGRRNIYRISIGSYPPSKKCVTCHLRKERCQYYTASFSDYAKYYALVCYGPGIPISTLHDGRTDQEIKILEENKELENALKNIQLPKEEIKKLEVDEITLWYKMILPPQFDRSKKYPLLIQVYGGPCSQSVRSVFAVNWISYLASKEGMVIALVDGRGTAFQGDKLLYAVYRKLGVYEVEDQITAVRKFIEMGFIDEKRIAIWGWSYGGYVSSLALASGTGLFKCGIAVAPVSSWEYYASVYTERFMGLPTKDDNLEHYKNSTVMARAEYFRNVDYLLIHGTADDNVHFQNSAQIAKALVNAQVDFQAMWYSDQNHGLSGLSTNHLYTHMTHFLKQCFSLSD
Description: as §1
(§3) IC50 measurements for FAP and PREP were carried out as described before. […] For PREP, N-succinyl-Gly-Pro-AMC (Bachem) at a final concentration of 250 µM at pH 7.4 in 0.1 M K-phosphate, 1 mM EDTA, 1 mM DTT and 1 mg/mL BSA buffer was used.
as §2

[4] = molecular target: T4, DPP8 (dipeptidyl peptidase VIII) (Homo sapiens, UniProt Q6V1X1); test: In vitro inhibition assay (IC50), DPP8, substrate Ala-Pro-pNA; type: biochemical; settings: for IC50: 300 µM Ala-Pro-pNA, pH 7.4, 37 °C
T4 construct: made in house
Description: as §1, §2

[5] = molecular target: T5, Human recombinant PREP (prolylendopeptidase) (Homo sapiens, UniProt P48147); test: In vitro inhibition assay (IC50), PREP, substrate N-succinyl-Gly-Pro-AMC; type: biochemical; settings: for IC50: 250 µM N-succinyl-Gly-Pro-AMC, pH 7.4, 37 °C; for SI(PREP/FAP): selectivity index = IC50(PREP)/IC50(FAP)
T5 construct: made in house
T5 sequence (P48147 1-710): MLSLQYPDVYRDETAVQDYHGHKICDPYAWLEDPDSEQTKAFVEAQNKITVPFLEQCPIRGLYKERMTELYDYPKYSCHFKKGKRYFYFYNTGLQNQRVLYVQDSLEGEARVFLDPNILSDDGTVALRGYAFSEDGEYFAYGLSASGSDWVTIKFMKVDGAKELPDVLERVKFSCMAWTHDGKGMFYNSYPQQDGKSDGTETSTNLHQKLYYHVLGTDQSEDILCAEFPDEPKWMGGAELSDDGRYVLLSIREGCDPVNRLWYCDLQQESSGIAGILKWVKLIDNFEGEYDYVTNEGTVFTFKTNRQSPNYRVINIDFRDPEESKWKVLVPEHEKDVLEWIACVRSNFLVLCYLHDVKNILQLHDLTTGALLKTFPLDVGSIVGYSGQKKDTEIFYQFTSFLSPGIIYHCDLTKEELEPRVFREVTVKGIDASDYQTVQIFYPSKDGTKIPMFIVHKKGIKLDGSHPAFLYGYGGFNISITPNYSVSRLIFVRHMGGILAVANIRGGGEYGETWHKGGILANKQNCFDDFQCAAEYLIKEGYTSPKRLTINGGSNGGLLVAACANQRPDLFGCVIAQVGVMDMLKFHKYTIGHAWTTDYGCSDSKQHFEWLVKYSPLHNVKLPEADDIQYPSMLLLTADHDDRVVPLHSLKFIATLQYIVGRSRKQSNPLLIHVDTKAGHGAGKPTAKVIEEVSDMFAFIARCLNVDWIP
Description: as §1, §3, §2

[6] = molecular target: T4, DPP8 (dipeptidyl peptidase VIII); settings: from previous works; cited from earlier work

T2 sequence (Q86TI2 whole entry, species assumed): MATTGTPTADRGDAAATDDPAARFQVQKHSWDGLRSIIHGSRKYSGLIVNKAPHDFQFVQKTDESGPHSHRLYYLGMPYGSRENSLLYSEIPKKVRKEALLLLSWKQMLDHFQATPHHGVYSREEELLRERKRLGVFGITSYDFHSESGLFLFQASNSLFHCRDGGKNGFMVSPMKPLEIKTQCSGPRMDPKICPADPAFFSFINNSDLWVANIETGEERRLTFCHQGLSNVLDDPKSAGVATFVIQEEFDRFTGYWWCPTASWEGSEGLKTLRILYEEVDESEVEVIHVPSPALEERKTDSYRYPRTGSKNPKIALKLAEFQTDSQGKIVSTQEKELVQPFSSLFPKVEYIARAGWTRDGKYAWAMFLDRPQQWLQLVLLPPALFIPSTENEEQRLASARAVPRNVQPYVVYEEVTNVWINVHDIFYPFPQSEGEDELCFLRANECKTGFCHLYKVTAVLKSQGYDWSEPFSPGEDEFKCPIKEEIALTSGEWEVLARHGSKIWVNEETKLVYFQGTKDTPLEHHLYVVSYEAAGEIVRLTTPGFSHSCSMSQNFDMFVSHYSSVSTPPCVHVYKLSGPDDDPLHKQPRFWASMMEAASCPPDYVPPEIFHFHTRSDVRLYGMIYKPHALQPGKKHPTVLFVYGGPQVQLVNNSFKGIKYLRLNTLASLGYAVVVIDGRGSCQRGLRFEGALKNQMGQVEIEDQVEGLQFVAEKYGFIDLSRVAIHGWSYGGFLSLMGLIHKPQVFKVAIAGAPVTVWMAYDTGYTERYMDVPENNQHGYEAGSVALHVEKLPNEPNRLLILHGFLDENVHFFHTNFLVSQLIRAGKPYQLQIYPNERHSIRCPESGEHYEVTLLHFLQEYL
T4 sequence (Q6V1X1 whole entry, species assumed): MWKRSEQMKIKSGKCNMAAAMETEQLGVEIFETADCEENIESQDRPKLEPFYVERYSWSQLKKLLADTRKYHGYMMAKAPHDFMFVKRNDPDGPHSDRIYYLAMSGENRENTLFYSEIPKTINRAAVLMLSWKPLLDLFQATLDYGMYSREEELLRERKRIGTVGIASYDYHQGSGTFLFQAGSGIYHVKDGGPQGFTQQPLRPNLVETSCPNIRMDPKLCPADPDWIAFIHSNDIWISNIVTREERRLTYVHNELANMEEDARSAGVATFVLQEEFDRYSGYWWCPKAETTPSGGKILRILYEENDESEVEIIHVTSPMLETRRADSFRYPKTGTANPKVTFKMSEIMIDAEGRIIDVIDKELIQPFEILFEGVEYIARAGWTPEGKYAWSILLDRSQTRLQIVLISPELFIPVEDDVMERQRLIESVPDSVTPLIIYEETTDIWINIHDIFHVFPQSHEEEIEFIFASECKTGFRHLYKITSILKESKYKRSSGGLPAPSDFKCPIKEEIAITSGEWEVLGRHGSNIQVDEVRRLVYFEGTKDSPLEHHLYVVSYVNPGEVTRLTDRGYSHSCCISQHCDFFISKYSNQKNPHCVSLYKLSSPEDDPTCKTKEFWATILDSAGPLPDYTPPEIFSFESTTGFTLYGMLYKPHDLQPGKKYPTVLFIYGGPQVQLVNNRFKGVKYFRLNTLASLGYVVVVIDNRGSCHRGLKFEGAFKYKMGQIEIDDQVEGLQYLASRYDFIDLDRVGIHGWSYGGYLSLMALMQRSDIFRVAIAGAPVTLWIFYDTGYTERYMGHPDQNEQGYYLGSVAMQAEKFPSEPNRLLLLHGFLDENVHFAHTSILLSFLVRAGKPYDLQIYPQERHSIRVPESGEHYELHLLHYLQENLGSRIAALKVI
T1 sequence (P27487 whole entry): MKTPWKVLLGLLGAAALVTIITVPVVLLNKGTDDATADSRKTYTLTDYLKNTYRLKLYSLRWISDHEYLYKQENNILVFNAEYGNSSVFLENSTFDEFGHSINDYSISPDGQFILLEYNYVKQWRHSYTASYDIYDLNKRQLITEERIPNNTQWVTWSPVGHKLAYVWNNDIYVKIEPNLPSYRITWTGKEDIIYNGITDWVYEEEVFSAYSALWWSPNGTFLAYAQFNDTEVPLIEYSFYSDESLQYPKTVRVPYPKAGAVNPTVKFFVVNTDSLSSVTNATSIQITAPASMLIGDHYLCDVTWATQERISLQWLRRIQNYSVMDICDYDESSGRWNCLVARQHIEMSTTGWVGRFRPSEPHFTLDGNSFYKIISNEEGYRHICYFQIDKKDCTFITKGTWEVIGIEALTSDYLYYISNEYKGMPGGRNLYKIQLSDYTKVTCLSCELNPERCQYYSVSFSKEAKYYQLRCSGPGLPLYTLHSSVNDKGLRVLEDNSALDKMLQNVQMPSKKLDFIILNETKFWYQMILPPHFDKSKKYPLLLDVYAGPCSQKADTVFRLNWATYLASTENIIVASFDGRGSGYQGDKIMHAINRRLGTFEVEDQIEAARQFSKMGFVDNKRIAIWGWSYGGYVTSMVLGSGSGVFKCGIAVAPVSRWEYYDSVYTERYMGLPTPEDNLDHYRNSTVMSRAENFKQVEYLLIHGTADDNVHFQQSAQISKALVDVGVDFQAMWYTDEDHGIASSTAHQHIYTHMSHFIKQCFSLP

| SMILES | IC50 (FAP) [µM] | IC50 [1] [µM] | SI(DPP4/FAP) [1] | IC50 [2] [µM] | SI(DPP9/FAP) [2] | IC50 values for FAP (in words) [3] | IC50 [4] [µM] | SI(DPP8/FAP) ([4]; selectivity index = IC50(DPP8)/IC50(FAP)) | IC50 [5] [µM] | SI(PREP/FAP) [5] | IC50 ([3]; 50 µM Z-Gly-Pro-AMC, pH 8.0, 37 °C, triplicate) [µM] | IC50 [6] [µM] |
| --- | --- | --- | --- | --- | --- | --- | --- | --- | --- | --- | --- | --- |
| N#C[C@@H]1CC(F)(F)CN1C(=O)CNC(=O)c1ccnc2c(NC(=O)CCC(=O)NCCCC[C@H](NC(=O)CCC(=O)Nc3cccc4c(C(=O)NCC(=O)N5CC(F)(F)C[C@H]5C#N)ccnc34)C(=O)NCCNC(=O)CC[C@H](C(=O)O)N3CCN(CC(=O)O)CCN(CC(=O)O)CCN(CC(=O)O)CC3)cccc12 [BiOncoFAP-DOTAGA] | 0.00017 |  |  |  |  |  |  |  |  |  |  |  |
| N#C[C@@H]1CC(F)(F)CN1C(=O)CNC(=O)c1ccnc2ccc(OCCCCNC(=O)CC[C@H](NC(=O)CN3CCN(CC(=O)O)CCN(CC(=O)O)CCN(CC(=O)O)CC3)C(=O)NCCCCOc3ccc4nccc(C(=O)NCC(=O)N5CC(F)(F)C[C@H]5C#N)c4c3)cc12 [DO3A.Glu.(FAPi)2, 2,2′,2″-(10-(2-(((S)-1,5-bis((4-((4-((2-((S)-2-Cyano-4,4-difluoropyrrolidin-1-yl)-2-oxoethyl)-carbamoyl)quinolin-6-yl)oxy)butyl)amino)-1,5-dioxopentan-2-yl)amino)-2-oxoethyl)-1,4,7,10-tetraazacyclododecane-1,4,7-triyl)triacetic acid] |  | 0.54 ± 0.06 | 900 | 0.95 ± 0.11 | 1583 | subnanomolar | 1.03 ± 0.18 | 1717 | 1 ± 0.14 | 1667 |  |  |
| N#C[C@@H]1CC(F)(F)CN1C(=O)CNC(=O)c1ccnc2ccc(OCCCCNC(=O)CC[C@H](NC(=O)CCC(C(=O)O)N3CCN(CC(=O)O)CCN(CC(=O)O)CCN(CC(=O)O)CC3)C(=O)NCCCCOc3ccc4nccc(C(=O)NCC(=O)N5CC(F)(F)C[C@H]5C#N)c4c3)cc12 (stereo partly drawn) [DOTAGA.Glu.(FAPi)2, 2,2′,2″-(10-(4-(((S)-1,5-bis((4-((4-((2-((S)-2-Cyano-4,4-difluoropyrrolidin-1-yl)-2-oxoethyl)-carbamoyl)quinolin-6-yl)oxy)butyl)amino)-1,5-dioxopentan-2-yl)amino)-1-carboxy-4-oxobutyl)-1,4,7,10-tetraazacyclododecane-1,4,7-triyl)triacetic acid] |  | 1.19 ± 0.08 | 4577 | 0.083 ± 0.0015 | 319 | subnanomolar | 0.029 ± 0.004 |  | 0.59 ± 0.1 | 2269 | 0.00026 ± 4e-05 |  |
| N#C[C@@H]1CC(F)(F)CN1C(=O)CNC(=O)c1ccnc2ccccc12 [UAMC-1110] |  |  |  |  |  |  |  |  |  |  |  | > 10 |

From article PMC10047490, “Novel Generation of FAP Inhibitor-Based Homodimers for Improved Application in Radiotheranostics” (Cancers, 2023)
